From PubChem BioAssay (NCI)
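Following 48 hours of exposure in 96-well plates, responses at five concentrations were used to interpolate endpoints linearly. The concentration for full growth arrest is given as TGI.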

Experiments:
Experiment in all cases: DTP human tumour cell line panel, 48 h
[1] = test system: 786-0 renal
[2] = test system: A498 renal
[3] = test system: A549 NSCLC
[4] = test system: ACHN renal
[5] = test system: BT-549 breast
[6] = test system: CAKI-1 renal
[7] = test system: CCRF-CEM leukemia
[8] = test system: COLO 205 colon
[9] = test system: DU-145 prostate
[10] = test system: EKVX NSCLC
[11] = test system: HCC-2998 colon
[12] = test system: HCT-116 colon
[13] = test system: HCT-15 colon
[14] = test system: HL-60(TB) leukemia
[15] = test system: HOP-62 NSCLC
[16] = test system: HOP-92 NSCLC
[17] = test system: HS 578T breast
[18] = test system: HT29 colon
[19] = test system: IGROV1 ovarian
[20] = test system: KM12 colon
[21] = test system: LOX IMVI melanoma
[22] = test system: M14 melanoma
[23] = test system: MALME-3M melanoma
[24] = test system: MCF7 breast
[25] = test system: MDA-MB-231 breast
[26] = test system: MDA-MB-435
[27] = test system: MDA-N
[28] = test system: MOLT-4 leukemia
[29] = test system: NCI-H226 lung
[30] = test system: NCI-H23 lung
[31] = test system: NCI-H460 lung
[32] = test system: NCI-H522 lung
[33] = test system: NCI/ADR-RES ovarian
[34] = test system: OVCAR-4 ovarian
[35] = test system: OVCAR-5 ovarian
[36] = test system: OVCAR-8 ovarian
[37] = test system: PC-3 prostate
[38] = test system: RPMI-8226 leukemia
[39] = test system: RXF 393 renal
[40] = test system: SF-268 CNS
[41] = test system: SF-295 CNS
[42] = test system: SK-MEL-2 melanoma
[43] = test system: SK-MEL-28 melanoma
[44] = test system: SK-MEL-5 melanoma
[45] = test system: SK-OV-3 ovarian
[46] = test system: SN12C renal
[47] = test system: SNB-19 CNS
[48] = test system: SNB-75 CNS
[49] = test system: SR leukemia
[50] = test system: SW-620 colon
[51] = test system: T-47D breast
[52] = test system: TK-10 renal
[53] = test system: U251 CNS
[54] = test system: UACC-257 melanoma
[55] = test system: UACC-62 melanoma
[56] = test system: UO-31 renal
[57] = test system: K-562 leukemia
[58] = test system: OVCAR-3 ovarian
[59] = test system: SF-539 CNS

## N#Cc1nc2ccccc2nc1N1CCN(c2ccc([N+](=O)[O-])cc2)CC1
[1]
  TGI: > 100 µM
[2]
  TGI: > 100 µM
[3]
  TGI: > 100 µM
[4]
  TGI: > 100 µM
[5]
  TGI: > 100 µM
[6]
  TGI: > 100 µM
[7]
  TGI: > 100 µM
[8]
  TGI: > 100 µM
[9]
  TGI: > 100 µM
[10]
  TGI: > 100 µM
[11]
  TGI: > 100 µM
[12]
  TGI: > 100 µM
[13]
  TGI: > 100 µM
[14]
  TGI: > 100 µM
[15]
  TGI: > 100 µM
[16]
  TGI: > 100 µM
[17]
  TGI: > 100 µM
[18]
  TGI: > 100 µM
[19]
  TGI: > 100 µM
[20]
  TGI: > 100 µM
[21]
  TGI: > 100 µM
[22]
  TGI: > 100 µM
[23]
  TGI: > 100 µM
[24]
  TGI: > 100 µM
[25]
  TGI: > 100 µM
[26]
  TGI: > 100 µM
[27]
  TGI: > 100 µM
[28]
  TGI: 1.05 µM
[29]
  TGI: > 100 µM
[30]
  TGI: > 100 µM
[31]
  TGI: > 100 µM
[32]
  TGI: > 100 µM
[33]
  TGI: > 100 µM
[34]
  TGI: > 100 µM
[35]
  TGI: > 100 µM
[36]
  TGI: > 100 µM
[37]
  TGI: > 100 µM
[38]
  TGI: > 100 µM
[39]
  TGI: > 100 µM
[40]
  TGI: > 100 µM
[41]
  TGI: > 100 µM
[42]
  TGI: > 100 µM
[43]
  TGI: > 100 µM
[44]
  TGI: > 100 µM
[45]
  TGI: > 100 µM
[46]
  TGI: > 100 µM
[47]
  TGI: > 100 µM
[48]
  TGI: > 100 µM
[49]
  TGI: > 100 µM
[50]
  TGI: > 100 µM
[51]
  TGI: > 100 µM
[52]
  TGI: > 100 µM
[53]
  TGI: > 100 µM
[54]
  TGI: > 100 µM
[55]
  TGI: > 100 µM
[56]
  TGI: > 100 µM

## O=c1cnn(C/C=C/CBr)c(=O)[nH]1
[2]
  TGI: 31.7 µM
[3]
  TGI: 33.9 µM
[4]
  TGI: 37.1 µM
[5]
  TGI: 19.4 µM
[6]
  TGI: 25.6 µM
[7]
  TGI: 47.6 µM
[8]
  TGI: 41.9 µM
[9]
  TGI: 43.8 µM
[10]
  TGI: 39.2 µM
[11]
  TGI: 34.7 µM
[13]
  TGI: 39.2 µM
[14]
  TGI: 26.5 µM
[15]
  TGI: 33.2 µM
[16]
  TGI: 28.7 µM
[17]
  TGI: > 100 µM
[18]
  TGI: 29.2 µM
[19]
  TGI: 37.7 µM
[57]
  TGI: 70.6 µM
[20]
  TGI: 32.7 µM
[21]
  TGI: 67.4 µM
[22]
  TGI: 35.9 µM
[23]
  TGI: 32 µM
[24]
  TGI: 36 µM
[25]
  TGI: 45.6 µM
[26]
  TGI: 33.7 µM
[27]
  TGI: 33.3 µM
[28]
  TGI: 50.1 µM
[29]
  TGI: 34.8 µM
[31]
  TGI: 36.5 µM
[32]
  TGI: 22.9 µM
[33]
  TGI: 58.1 µM
[58]
  TGI: 64.2 µM
[34]
  TGI: 48 µM
[35]
  TGI: 31.2 µM
[36]
  TGI: 54 µM
[37]
  TGI: 36.4 µM
[38]
  TGI: 49.5 µM
[39]
  TGI: 31.9 µM
[40]
  TGI: 39.3 µM
[59]
  TGI: 31.6 µM
[42]
  TGI: 42.2 µM
[43]
  TGI: 41.9 µM
[44]
  TGI: 26.6 µM
[46]
  TGI: 41.6 µM
[47]
  TGI: 79.7 µM
[48]
  TGI: 33.4 µM
[49]
  TGI: 42.8 µM
[50]
  TGI: 28.8 µM
[51]
  TGI: 57 µM
[53]
  TGI: 28.8 µM
[54]
  TGI: 26.9 µM
[56]
  TGI: 28.8 µM
